Data published in patent US6369225B1, “Compounds having activity as inhibitors of cytochrome P450RAI” (Allergan Sales, Inc., priority 2000, dated 2002).

Columns and labels:
skin of hairless mice = experiment: topical skin irritation test in hairless mice; format: in vivo, mouse; conditions: topical in acetone, once daily days 1 through 5, mean ±SD, range 0-21
Source text: Mice were housed individually throughout the dosing period.
Doses are disclosed as nmol/25 g.
The grading scale used is as follows:
Values can range from 0-9.
Values can range from 0-8.

P450RAI-1 = target: T1, P450RAI-1 (Homo sapiens, UniProt O43174); experiment: P450RAI-1 cell-based inhibitor assay; conditions: P450RAI-1 stably transfected HeLa cells, [3H]-RA metabolism, 3 hours at 37° C.; read-out: P450RAI INHIBITION DATA INTACT HELA IC50
T1 construct: expressed in transfected cells; host or cells: HeLa cells, stably transfected, hygromycin selection
T1 sequence (O43174 1-497): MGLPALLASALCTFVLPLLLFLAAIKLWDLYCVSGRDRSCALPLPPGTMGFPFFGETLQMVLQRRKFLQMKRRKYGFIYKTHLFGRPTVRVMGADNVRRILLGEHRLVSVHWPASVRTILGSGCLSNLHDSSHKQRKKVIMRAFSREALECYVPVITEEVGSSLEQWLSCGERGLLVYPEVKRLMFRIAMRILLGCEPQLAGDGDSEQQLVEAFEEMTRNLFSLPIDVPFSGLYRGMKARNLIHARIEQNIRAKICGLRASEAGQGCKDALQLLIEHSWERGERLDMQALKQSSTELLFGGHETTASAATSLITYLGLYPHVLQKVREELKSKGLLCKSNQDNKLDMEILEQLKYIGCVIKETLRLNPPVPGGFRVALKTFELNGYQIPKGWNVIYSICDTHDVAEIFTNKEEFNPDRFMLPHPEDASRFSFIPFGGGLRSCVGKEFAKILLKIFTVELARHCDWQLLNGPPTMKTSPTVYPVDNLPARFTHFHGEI
Method: P450RAI-1 stably transfected HeLa cells are maintained in […] tissue culture dishes in Modified Eagle's Medium (MEM) containing 10% Fetal Bovine Serum (FBS) and 100 μg/ml hygromycin. Exponentially growing cells are harvested by incubating in trypsin. Cells are then washed with 1× Phosphate Buffered Saline (PBS) and plated in a 48-well plate at 5×10^5 cells in 0.2 ml MEM medium containing 10% FBS and 0.05 μCi[^3H]-RA in the presence or absence of increasing concentrations of the test compounds. The compounds are diluted in 100% DMSO and then added in triplicate wells at either 10, 1 or 0.1 μM final concentration. As a positive control for RA metabolism inhibition, cells are also incubated with ketoconazole at 100, 10 and 1 μM. Cell are incubated for 3 hours at 37° C. […] The water soluble radioactivity is quantified using a β-scintillation counter. IC50 values represent the concentration of inhibitor required to inhibit all-trans-RA metabolism by 50 percent and are derived manually from log-transformed data.

RARγ = target: T2, RARγ (Homo sapiens, UniProt P13631); experiment: ligand binding assay, RARγ; conditions: Kd line of EC50/(EFFICACY)/Kd, read-out: RAR Kd γ
T2 sequence (P13631 1-454): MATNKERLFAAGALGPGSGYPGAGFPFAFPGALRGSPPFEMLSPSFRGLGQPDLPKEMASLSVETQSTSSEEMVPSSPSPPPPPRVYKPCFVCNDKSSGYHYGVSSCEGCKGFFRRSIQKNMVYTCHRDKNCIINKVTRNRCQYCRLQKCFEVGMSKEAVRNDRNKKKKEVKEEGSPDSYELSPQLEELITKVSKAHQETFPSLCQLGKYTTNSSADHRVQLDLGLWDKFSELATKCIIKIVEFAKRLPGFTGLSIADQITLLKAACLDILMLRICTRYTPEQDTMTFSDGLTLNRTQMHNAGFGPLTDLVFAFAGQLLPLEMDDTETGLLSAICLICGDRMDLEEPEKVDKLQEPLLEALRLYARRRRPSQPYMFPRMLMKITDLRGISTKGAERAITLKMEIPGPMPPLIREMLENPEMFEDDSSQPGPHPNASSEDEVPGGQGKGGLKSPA
Source text: (§1) Assays described below measure the ability of a compound to bind to, and/or activate various retinoid receptor subtypes. When in these assays a compound binds to a given receptor subtype and activates the transcription of a reporter gene through that subtype, then the compound is considered an agonist of that receptor subtype. […] In the below described assays the ability of the compounds to bind to RARα, RARβ, RARγ, RXRα, RXRβ and RXRγ receptors, and the ability or inability of the compounds to activate transcription of a reporter gene through these receptor subtypes can be tested.
(§2) A holoreceptor transactivation assay and a ligand binding assay which measure the antagonist/agonist like activity of the compounds of the invention, or their ability to bind to the several retinoid receptor subtypes, respectively, are described in published PCT Application No. WO WO93/11755 (particularly on pages 30-33 and 37-41) published on Jun. 24, 1993, the specification of which is also incorporated herein by reference. A detailed experimental procedure for holoreceptor transactivations has been described by Heyman et al. Cell 68, 397-406, (1992); Allegretto et al. J. Biol. Chem. 268, 26625-26633, and Mangelsdorf et al. The Retinoids: Biology, Chemistry and Medicine, pp 319-349, Raven Press Ltd., New York, which are expressly incorporated herein by reference. The results obtained in this assay are expressed in EC50 numbers, as they are also in the chimeric receptor transactivation assay. The results of ligand binding assay are expressed in Kd numbers. (See Cheng et al. Biochemical Pharmacology Vol. 22 pp 3099-3108, expressly incorporated herein by reference.)
(§3) The results if the ligand binding assay for several preferred compounds of the invention are included in Table 1.

RARβ = target: T3, RARβ (Homo sapiens, UniProt P10826); experiment: ligand binding assay, RARβ; conditions: Kd line of EC50/(EFFICACY)/Kd, read-out: RAR Kd β
T3 sequence (P10826 1-455): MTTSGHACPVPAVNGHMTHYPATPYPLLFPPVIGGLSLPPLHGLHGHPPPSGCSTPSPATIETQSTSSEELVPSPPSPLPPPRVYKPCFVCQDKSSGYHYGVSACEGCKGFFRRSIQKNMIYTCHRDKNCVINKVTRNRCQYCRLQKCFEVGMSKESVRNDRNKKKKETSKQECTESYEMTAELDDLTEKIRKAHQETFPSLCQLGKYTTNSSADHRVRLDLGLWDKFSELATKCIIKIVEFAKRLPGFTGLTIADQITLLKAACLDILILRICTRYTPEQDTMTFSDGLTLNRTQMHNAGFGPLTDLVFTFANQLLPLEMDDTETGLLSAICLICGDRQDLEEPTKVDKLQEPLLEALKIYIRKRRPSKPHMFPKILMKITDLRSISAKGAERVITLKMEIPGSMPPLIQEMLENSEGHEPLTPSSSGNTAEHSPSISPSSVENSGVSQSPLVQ
Source text: as §1
as §2, with “A detailed experimental procedure for holoreceptor transactivations has been described by Heyman et al. Cell 68, 397-406, (1992); Allegretto et al. J. Biol. Chem. 268, 26625-26633, and Mangelsdorf et al. The Retinoids: Biology, Chemistry and Medicine, pp 319-349, Raven Press Ltd., New York, which are expressly incorporated herein by reference.” left out

RARα = target: T4, RARα (Homo sapiens, UniProt P10276); experiment: ligand binding assay, RARα; conditions: Kd line of EC50/(EFFICACY)/Kd, read-out: RAR Kd α
T4 sequence (P10276 1-462): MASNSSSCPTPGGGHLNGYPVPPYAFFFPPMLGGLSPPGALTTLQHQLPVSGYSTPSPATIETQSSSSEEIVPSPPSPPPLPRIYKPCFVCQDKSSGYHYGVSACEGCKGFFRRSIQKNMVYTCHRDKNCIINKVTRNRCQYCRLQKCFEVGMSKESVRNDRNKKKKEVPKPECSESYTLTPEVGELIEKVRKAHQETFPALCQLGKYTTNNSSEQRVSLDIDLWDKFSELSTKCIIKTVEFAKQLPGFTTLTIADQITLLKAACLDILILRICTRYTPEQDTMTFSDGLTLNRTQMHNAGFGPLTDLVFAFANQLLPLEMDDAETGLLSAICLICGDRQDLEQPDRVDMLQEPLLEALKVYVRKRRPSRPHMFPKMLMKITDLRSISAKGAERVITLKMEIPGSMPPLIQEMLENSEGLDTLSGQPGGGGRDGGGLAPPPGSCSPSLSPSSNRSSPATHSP
Source text: as §1, §2, §3

SMILES | Cutaneous Toxicity Score (Blackjack Score) (skin of hairless mice; 100 nmole (nmol/25 g)) | Cutaneous Toxicity Score (Blackjack Score) (skin of hairless mice; 300 nmole (nmol/25 g)) | Cutaneous Toxicity Score (Blackjack Score) (skin of hairless mice; 1000 nmole (nmol/25 g)) | IC50 (P450RAI-1) [nM] | Kd (RARγ) [nM] | Kd (RARβ) [nM] | Kd (RARα) [nM]
CC1(C)CN(C2CC2)Cc2ccc(C#Cc3ccc(CC(=O)O)c(F)c3)cc21 [Compound 22, [4-(2-Cyclopropyl-4,4-dimethyl-1,2,3,4-tetrahydro-isoquinoline-6-yl-ethynyl)-2-fluoro-phenyl]-acetic Acid] | 0 ± 0 | 0 ± 0 | 1 ± 1 | 1600 |  |  | 
CC1(C)CC(C)(C)c2cc(C#Cc3ccc(CC(=O)O)cc3)cc(C3CC3)c2O1 [Compound 36, [4-(8-Cyclopropyl-2,2,4,4-tetramethyl-chroman-6-yl-ethynyl)phenyl]acetic Acid] | 1 ± 1 |  | 11 ± 0 | 33 | 492 | 4900 | 13000
CN(C1CC1)C1CCC(C)(C)c2cc(C#Cc3ccc(CC(=O)O)c(F)c3)ccc21 (stereo not shown) [Compound 18, [4-(5-(Cyclopropyl-methyl-amino)-8,8-dimethyl-5,6,7,8-tetrahydro-naphthalene-2-yl-ethynyl)-2-fluoro-phenyl]-acetic Acid] | 0 ± 0 | 5 ± 2 | 10 ± 2 | 1100 |  |  | 
CC1(C)CC2(CC2)Oc2c(C3CC3)cc(C#Cc3ccc(CC(=O)O)cc3)cc21 [Compound 48, Benzeneacetic Acid, 4-[(8-cyclopropyl-3,4-dihydro-4,4-dimethylspiro[2H-1-benzopyran-2,1′-cyclopropane]-6-yl)ethynyl]-] | 1 ± 1 | 3 ± 1 | 7 ± 2 | 30 |  |  | 
CC1(C)CC(C)(C)c2cc(C#Cc3ccc(CC(=O)O)c(F)c3)cc(C3CC3)c2O1 [Compound 38, [4-(8-Cyclopropyl-2,2,4,4-tetramethyl-chroman-6-yl-ethynyl)-2-fluorophenyl]acetic Acid] | 1 ± 1 |  | 10 ± 1 | 25 | 2880 | 5320 | 
CC1(C)CCC(n2ccnc2)c2ccc(C#Cc3ccc(CC(=O)O)cc3)cc21 (stereo not shown) [Compound 137, [4-(5-Imidazol-1-yl-8,8-dimethyl-5,6,7,8-tetrahydro-naphthalen-2-yl-ethynyl)-phenyl]-acetic Acid] | 1 ± 1 | 1 ± 1 | 5 ± 2 | 100 |  |  | 
CC1(C)CC2(CC2)Oc2c(C3CC3)cc(C(=O)Oc3ccc(CC(=O)O)cc3)cc21 [Compound 58, Spiro[2H-1-benzopyran-2,1′-cyclopropane]-6-carboxylic Acid, 8-cyclopropyl-3,4-dihydro-4,4-dimethyl-, 4-(carboxymethyl)phenyl Ester] | 0 ± 0 | 0 ± 0 | 0 ± 0 | 180 |  |  | 
